The MIC is the lowest concentration found to suppress growth. High values mean a less susceptible organism, low ones a more susceptible organism.

Type in all cases: functional
Assay [1] has as its system Mycobacterium tuberculosis. The assay can be described thus: Antimycobacterial activity against multi drug resistant Mycobacterium tuberculosis 7357/1998 after 14 days. Particulars: 7357/1998, 336 h.
In assay [2] the test system is Mycobacterium tuberculosis. Put plainly: Antimycobacterial activity against multi drug resistant Mycobacterium tuberculosis Praha 1 after 21 days. Particulars: Praha 1, 504 h.
The subject of assay [3] is Mycobacterium tuberculosis. Put plainly: Antimycobacterial activity against multi drug resistant Mycobacterium tuberculosis 9449/2006 after 21 days. Particulars: 9449/2006, 504 h.
Assay [4] relates to Mycobacterium tuberculosis. The assay can be described thus: Antimycobacterial activity against multi drug resistant Mycobacterium tuberculosis 234/2005 after 21 days. Particulars: 234/2005, 504 h.
For assay [5], the system named is Mycobacterium tuberculosis. The assay can be described thus: Antimycobacterial activity against multi drug resistant Mycobacterium tuberculosis Praha 4 after 21 days. Particulars: Praha 4, 504 h.
For assay [6], the system named is Mycobacterium tuberculosis. Put plainly: Antimycobacterial activity against multi drug resistant Mycobacterium tuberculosis Praha 1 after 14 days. Particulars: Praha 1, 336 h.
Assay [7] deals with Mycobacterium tuberculosis. The assay can be described thus: Antimycobacterial activity against multi drug resistant Mycobacterium tuberculosis Praha 4 after 14 days. Particulars: Praha 4, 336 h.
Assay [8] relates to Mycobacterium tuberculosis. The assay can be described thus: Antimycobacterial activity against multi drug resistant Mycobacterium tuberculosis 8666/2010 after 14 days. Particulars: 8666/2010, 336 h.
The subject of assay [9] is Mycobacterium tuberculosis. The assay can be described thus: Antimycobacterial activity against multi drug resistant Mycobacterium tuberculosis 234/2005 after 14 days. Particulars: 234/2005, 336 h.
In assay [10] the test system is Mycobacterium tuberculosis. Put plainly: Antimycobacterial activity against multi drug resistant Mycobacterium tuberculosis 9449/2006 after 14 days. Particulars: 9449/2006, 336 h.
Assay [11] relates to Mycobacterium tuberculosis. The assay can be described thus: Antimycobacterial activity against multi drug resistant Mycobacterium tuberculosis 8666/2010 after 21 days. Particulars: 8666/2010, 504 h.
The subject of assay [12] is Mycobacterium tuberculosis. The assay can be described thus: Antimycobacterial activity against multi drug resistant Mycobacterium tuberculosis 7357/1998 after 21 days. Particulars: 7357/1998, 504 h.

Values after ≈ are worked out from the molar mass of the structure shown.

Consider `O=C(NCCc1ccccc1)Oc1ccc(Cl)cc1C(=O)Nc1ccc(C(F)(F)F)cc1`, for which the MIC in assay [1] turned out to be 1 µM (≈ 0.463 µg/mL); in [2], 1 µM (≈ 0.463 µg/mL); in assay [3] it was 2 µM (≈ 0.926 µg/mL); in [4], 2 µM (≈ 0.926 µg/mL); in [5] it was 2 µM (≈ 0.926 µg/mL); in [6] it was 1 µM (≈ 0.463 µg/mL). In addition, the MIC in [7], in assay [8], in assay [9], in assay [10], in [11] and in assay [12] was 2 µM (≈ 0.926 µg/mL) in each case.

`O=C(Nc1ccccc1)Oc1ccc(Cl)cc1C(=O)Nc1ccc(C(F)(F)F)cc1`: the MIC amounted to 0.5 µM (≈ 0.217 µg/mL) in [1]; 1 µM (≈ 0.435 µg/mL) in [2]; 1 µM (≈ 0.435 µg/mL) in [3]; 1 µM (≈ 0.435 µg/mL) in assay [4]; 1 µM (≈ 0.435 µg/mL) in assay [5]; 0.5 µM (≈ 0.217 µg/mL) in [6]. Also, the MIC in assay [7] was determined as 0.5 µM (≈ 0.217 µg/mL); in assay [8], 0.5 µM (≈ 0.217 µg/mL); in assay [9], 1 µM (≈ 0.435 µg/mL); in [10], 1 µM (≈ 0.435 µg/mL); in assay [11], 1 µM (≈ 0.435 µg/mL); in assay [12], 1 µM (≈ 0.435 µg/mL).

Regarding `O=C(NC1CCCCC1)Oc1ccc(Cl)cc1C(=O)Nc1ccc(C(F)(F)F)cc1`, the MIC is 0.5 µM (≈ 0.22 µg/mL) in [1]; 1 µM (≈ 0.441 µg/mL) in assay [2]; 1 µM (≈ 0.441 µg/mL) in assay [3]; 1 µM (≈ 0.441 µg/mL) in [4]; 1 µM (≈ 0.441 µg/mL) in [5]; 0.5 µM (≈ 0.22 µg/mL) in assay [6]. In addition, the minimal inhibitory concentration (MIC) in assay [7] was 0.5 µM (≈ 0.22 µg/mL); in assay [8] it was 0.5 µM (≈ 0.22 µg/mL); in assay [9] it was 0.5 µM (≈ 0.22 µg/mL); in assay [10], 0.5 µM (≈ 0.22 µg/mL); in [11], 1 µM (≈ 0.441 µg/mL); in [12] it was 1 µM (≈ 0.441 µg/mL).

With `O=C(NC12CC3CC(CC(C3)C1)C2)Oc1ccc(Cl)cc1C(=O)Nc1ccc(C(F)(F)F)cc1`, the minimum inhibitory concentration (MIC) in assay [1] is 0.5 µM (≈ 0.246 µg/mL); in assay [2], 1 µM (≈ 0.493 µg/mL); in assay [3], 1 µM (≈ 0.493 µg/mL); in assay [4], 1 µM (≈ 0.493 µg/mL); in [5], 1 µM (≈ 0.493 µg/mL); in [6], 0.5 µM (≈ 0.246 µg/mL). Further, the MIC in assay [7] turned out to be 0.5 µM (≈ 0.246 µg/mL); in [8] it was 0.5 µM (≈ 0.246 µg/mL); in assay [9] it was 1 µM (≈ 0.493 µg/mL); in [10] it was 1 µM (≈ 0.493 µg/mL); in [11] it was 1 µM (≈ 0.493 µg/mL); in assay [12], 1 µM (≈ 0.493 µg/mL).

Source of the values: ChEMBL document CHEMBL4406824, “Phenolic N-monosubstituted carbamates: Antitubercular and toxicity evaluation of multi-targeting compounds” (Eur J Med Chem, 2019).
